Experimental data published in patent publication US20210228490A1, “STABLE PHARMACEUTICAL FORMULATION” (ORYZON GENOMICS, S.A., priority 2018, published 2021).
Entries after “also recorded” stand apart in the source; their conditions may differ.

Assay: Chemical stability of the API alone and in presence of excipients
Assay type: physicochemical
Procedure: Excipient selection/composition development was conducted in order to stabilize (trans)-N1-((1R,2S)-2-phenylcyclopropyl)cyclohexane-1,4-diamine in the final drug product to prevent its chemical degradation. (trans)-N1-((1R,2S)-2-phenylcyclopropyl)cyclohexane-1,4-diamine is very unstable in presence of excipients which are used to form a tablet composition. This is reflected by a decrease of the (trans)-N1-((1R,2S)-2-phenylcyclopropyl)cyclohexane-1,4-diamine content (assay) over time upon storage. The effect is more pronounced at elevated storage temperature.

chemical stability as an API (API alone): chemically very stable
SMILES: N[C@H]1CC[C@H](N[C@@H]2C[C@H]2c2ccccc2)CC1 [(trans)-N1-((1R,2S)-2-phenylcyclopropyl)cyclohexane-1,4-diamine]
stability in presence of excipients (in presence of excipients which are used to form a tablet composition, more pronounced at elevated storage temperature): very unstable; also recorded: decompose in presence of many excipients
